Measurements from PubChem BioAssay AID256 (DTP/NCI, 2004).
Where “and” joins values, the source holds several entries; their conditions need not be identical. Identical values can stand only once. Toxic doses and inconclusive results are not listed. The calls were made as follows: active = survival T/C of 150% or more; inactive = T/C below 125% in these data.

Test system: CD2F1 mice, L1210 leukemia ip, survival T/C
Test: NCI In Vivo Anticancer Drug Screen. Data for tumor model L1210 Leukemia (intraperitoneal) in CD2F1 (CDF1) mice
Settings: endpoint: mean survival time, higher = longer survival
Summary of the method: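 Implant tumor; dose compound or vehicle; measure endpoint in both groups; report treated divided by control.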

[1] = dose: 100.0 mg/kg/injection, schedule: Q01DX009 (ip), vehicle: saline with Tween-80
[2] = dose: 200.0 mg/kg/injection, schedule: Q01DX009 (ip), vehicle: saline with Tween-80
[3] = dose: 100.0 mg/kg/injection, schedule: Q04DX003 (ip), vehicle: saline with Tween-80
[4] = dose: 200.0 mg/kg/injection, schedule: Q04DX003 (ip), vehicle: saline with Tween-80
[5] = dose: 400.0 mg/kg/injection, schedule: Q04DX003 (ip), vehicle: saline with Tween-80
[6] = dose: 400.0 mg/kg/injection, schedule: Q01DX009 (ip), vehicle: saline with Tween-80
[7] = dose: 100.0 mg/kg/injection, schedule: Q01DX001 (ip), vehicle: saline with Tween-80
[8] = dose: 200.0 mg/kg/injection, schedule: Q01DX001 (ip), vehicle: saline with Tween-80
[9] = dose: 400.0 mg/kg/injection, schedule: Q01DX001 (ip), vehicle: saline with Tween-80

Measured: T/C

O=C(Nc1nc2c(ccc3ccccc32)s1)Nc1ccccc1F
inactive: dose: 50.0 mg/kg/injection, schedule: Q01DX009 (ip), vehicle: saline with Tween-80 94 % of control | [1] 97 % of control | [2] 105 % of control

Cc1ccc(C(=O)O)cc1
inactive: [3] 101 % of control | [4] 93 % of control | [5] 97 % of control

CC1(CBr)Oc2ccccc2O1
inactive: dose: 100.0 mg/kg/injection, schedule: Q04DX003 (ip), vehicle: Klucel (hydroxypropylcellulose) (HPC) 97 % of control | dose: 200.0 mg/kg/injection, schedule: Q04DX003 (ip), vehicle: Klucel (hydroxypropylcellulose) (HPC) 88 % of control | dose: 400.0 mg/kg/injection, schedule: Q04DX003 (ip), vehicle: Klucel (hydroxypropylcellulose) (HPC) 94 % of control

Clc1ncnc2c1ncn2CCCn1cnc2c(Cl)ncnc21
inactive: dose: 12.5 mg/kg/injection, schedule: Q01DX009 (ip), vehicle: Klucel (hydroxypropylcellulose) (HPC) 94 % of control | dose: 25.0 mg/kg/injection, schedule: Q01DX009 (ip), vehicle: Klucel (hydroxypropylcellulose) (HPC) 90 % of control | dose: 50.0 mg/kg/injection, schedule: Q01DX009 (ip), vehicle: Klucel (hydroxypropylcellulose) (HPC) 94 % of control | dose: 100.0 mg/kg/injection, schedule: Q01DX009 (ip), vehicle: Klucel (hydroxypropylcellulose) (HPC) 103 % of control | dose: 200.0 mg/kg/injection, schedule: Q01DX009 (ip), vehicle: Klucel (hydroxypropylcellulose) (HPC) 101 % of control

NS(=O)(=O)c1ccc(NC(=S)NC(=O)c2cccc3ccccc23)cc1
inactive: [1] 93 % of control | [2] 93 % of control | [6] 93 % of control

C=CCOC(=O)C1c2ccccc2Cc2ccccc21
inactive: [1] 92 % of control | [2] 106 % of control | [6] 92 % of control

CCOC(=O)C(=O)C(C#N)c1ccccc1 (stereo unspecified)
inactive: dose: 25.0 mg/kg/injection, schedule: Q01DX001 (ip), vehicle: Klucel (hydroxypropylcellulose) (HPC) 92 % of control | dose: 50.0 mg/kg/injection, schedule: Q01DX001 (ip), vehicle: Klucel (hydroxypropylcellulose) (HPC) 100 % of control | dose: 100.0 mg/kg/injection, schedule: Q01DX001 (ip), vehicle: Klucel (hydroxypropylcellulose) (HPC) 100 % of control and 106 % of control

Nc1ncnc2oc(-c3ccccc3)c(-c3ccccc3)c12
inactive: [7] 87 % of control | [8] 89 % of control | [9] 87 % of control

O=C(O)C1=NN(c2cccc([N+](=O)[O-])c2)C(=O)C1
inactive: [1] 114 % of control | [3] 98 % of control | [2] 101 % of control | [4] 104 % of control | [6] 95 % of control | [5] 102 % of control

CC(=O)NC1C=C(C)C(=O)O1 (stereo unspecified)
inactive: dose: 100.0 mg/kg/injection, schedule: Q04DX002 (ip), vehicle: saline 102 % of control | dose: 200.0 mg/kg/injection, schedule: Q04DX002 (ip), vehicle: saline 91 % of control | dose: 400.0 mg/kg/injection, schedule: Q04DX002 (ip), vehicle: saline 94 % of control

O=C/C(Cl)=C(/Cl)C(=O)O
inactive: dose: 1.25 mg/kg/injection, schedule: Q01DX009 (ip), vehicle: saline with Tween-80 100 % of control | dose: 2.5 mg/kg/injection, schedule: Q01DX009 (ip), vehicle: saline with Tween-80 98 % of control | dose: 5.0 mg/kg/injection, schedule: Q01DX009 (ip), vehicle: saline with Tween-80 108 % of control | dose: 6.25 mg/kg/injection, schedule: Q04DX002 (ip), vehicle: saline with Tween-80 103 % of control | dose: 10.0 mg/kg/injection, schedule: Q01DX009 (ip), vehicle: saline with Tween-80 104 % of control | dose: 12.5 mg/kg/injection, schedule: Q04DX002 (ip), vehicle: saline with Tween-80 107 % of control | dose: 20.0 mg/kg/injection, schedule: Q01DX009 (ip), vehicle: saline with Tween-80 103 % of control | dose: 25.0 mg/kg/injection, schedule: Q04DX002 (ip), vehicle: saline with Tween-80 111 % of control

CCS(=O)(=O)C(C)S(=O)(=O)CC
inactive: [7] 100 % of control | [8] 107 % of control | [9] 104 % of control

CC1CC(C)/C(=N/NC(N)=S)C(C(O)CC2CC(=O)NC(=O)C2)C1 (stereo unspecified)
inactive: dose: 25.0 mg/kg/injection, schedule: Q01DX009 (ip), vehicle: saline 94 % of control and 100 % of control | dose: 50.0 mg/kg/injection, schedule: Q01DX009 (ip), vehicle: saline 100 % of control and 102 % of control | dose: 100.0 mg/kg/injection, schedule: Q01DX009 (ip), vehicle: saline 97 % of control and 103 % of control | dose: 200.0 mg/kg/injection, schedule: Q01DX009 (ip), vehicle: saline 113 % of control and 102 % of control | dose: 400.0 mg/kg/injection, schedule: Q01DX009 (ip), vehicle: saline 113 % of control and 114 % of control
